In US20240360151A1 (SANOFI, priority 2023, published 2024) one finds IC50 data, which are given here for 24 compounds.

For one test, the target named is T1, NLRP3 inflammasome (Homo sapiens, UniProt Q96P20).
T1 construct: endogenous in cells; host or cells: THP-1 monocytic cells
Nature of the test: IL-1β secretion assay (NLRP3 IC50) in LPS-primed, nigericin-activated THP-1 cells, HTRF. The format is cell-based. The settings on record: monocytic THP-1 cells; LPS 10 ng/mL 3 h priming, then compound + nigericin 10 μM 2 h; relative IC50, 10 concentrations, geometric mean. The method, boiled down:
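IL-1β in supernatant read by HTRF after 2 h co-incubation of compound (0.1% DMSO, 10 concentrations, 1:3 series) with nigericin at 10 μM final, following 3 h LPS (10 ng/mL) priming of THP-1 monocytes at 37° C. Inhibition normalised to unactivated and no-compound controls; geometric-mean relative IC50 from 4-parameter logistic model.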

For test [1], the system named is NF-kB pathway (TNF-α secretion by THP-1 cells). Nature of the test: TNF-α secretion assay in LPS-stimulated THP-1 cells, Lumit immunoassay. The format is cell-based, human. The settings on record: Homo sapiens, THP-1, 3 h, monocytic THP-1 cells, LPS 10 ng/mL, relative IC50, 10 concentrations, geometric mean. The method in brief:
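TNF-α release was quantified directly in the cell plate by Lumit immunoassay after a 3-h, 10 ng/mL LPS trigger of compound-treated THP-1 cells (RPMI, 5% FBS). Percent inhibition versus no-compound and unstimulated controls fed a 4-parameter logistic fit over 10 concentrations, giving geometric-mean relative IC50.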

T1 sequence (Q96P20 whole entry): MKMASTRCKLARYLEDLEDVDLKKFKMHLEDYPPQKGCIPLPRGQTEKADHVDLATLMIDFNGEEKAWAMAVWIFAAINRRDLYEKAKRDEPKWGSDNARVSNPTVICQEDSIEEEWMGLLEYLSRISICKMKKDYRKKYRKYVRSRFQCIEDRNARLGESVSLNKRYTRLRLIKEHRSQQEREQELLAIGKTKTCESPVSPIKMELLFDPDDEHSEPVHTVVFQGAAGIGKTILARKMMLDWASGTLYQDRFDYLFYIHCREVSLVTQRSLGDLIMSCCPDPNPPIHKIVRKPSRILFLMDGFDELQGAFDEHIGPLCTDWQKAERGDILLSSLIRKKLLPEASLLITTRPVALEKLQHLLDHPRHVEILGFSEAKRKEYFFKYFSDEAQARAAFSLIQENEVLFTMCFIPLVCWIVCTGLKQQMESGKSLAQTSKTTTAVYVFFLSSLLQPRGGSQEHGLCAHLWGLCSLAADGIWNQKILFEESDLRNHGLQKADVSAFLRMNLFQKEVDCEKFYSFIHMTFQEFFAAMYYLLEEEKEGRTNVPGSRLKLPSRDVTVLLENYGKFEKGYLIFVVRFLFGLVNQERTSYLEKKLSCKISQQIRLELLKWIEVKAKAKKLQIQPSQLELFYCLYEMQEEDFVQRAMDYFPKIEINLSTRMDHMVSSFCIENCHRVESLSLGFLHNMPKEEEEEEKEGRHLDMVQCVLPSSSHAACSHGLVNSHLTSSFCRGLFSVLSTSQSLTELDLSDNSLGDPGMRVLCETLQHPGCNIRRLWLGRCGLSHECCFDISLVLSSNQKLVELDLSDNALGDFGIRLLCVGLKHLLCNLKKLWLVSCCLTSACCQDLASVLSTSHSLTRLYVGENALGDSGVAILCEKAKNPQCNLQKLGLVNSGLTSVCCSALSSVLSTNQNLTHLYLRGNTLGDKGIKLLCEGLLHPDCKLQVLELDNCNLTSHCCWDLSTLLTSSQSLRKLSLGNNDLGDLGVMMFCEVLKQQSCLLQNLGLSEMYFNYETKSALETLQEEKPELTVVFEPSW

For the compound `Cc1cc(C)c(-c2ccc(N3CCc4ccc(O)cc43)nn2)c(O)c1` [Example 254, 1-[6-(2-hydroxy-4,6-dimethyl-phenyl)pyridazin-3-yl]indolin-6-ol], the IC50 at NLRP3 inflammasome amounted to 0.46 µM; in test [1], 9.97 µM.
Turning to `CC(=O)NC[C@@H]1CN(c2ccc(-c3c(C)cc(C(F)(F)F)cc3O)nn2)CCO1` [Example 216, N-[[(2R)-4-[6-[2-hydroxy-6-methyl-4-(trifluoromethyl)phenyl]pyridazin-3-yl]morpholin-2-yl]methyl]acetamide], the half-maximal inhibitory concentration (IC50) was 0.128 µM at NLRP3 inflammasome and over 10 µM in test [1].
The corresponding values for `Cc1cc(C)c(-c2ccc(N3C[C@@H](N)CC3=O)nn2)c(O)c1` [Example 131, (4S)-4-amino-1-[6-(2-hydroxy-4,6-dimethyl-phenyl)pyridazin-3-yl]pyrrolidin-2-one] are 0.387 µM and over 10 µM.
The corresponding values for `Cc1ccc(-c2nnc(N3CC[C@@H]4CCN(C)C[C@@H]43)cc2C)c(O)c1` (single isomer, unassigned) [Example 374] are 0.042 µM and over 10 µM.
For the compound `CCN1CC[C@@H]2OCCN(c3ccc(-c4c(C)cc(C)cc4O)nn3)[C@@H]2C1` (racemic) [Example 209, 2-[6-[rac-(4aR,8aS)-6-ethyl-3,4a,5,7,8,8a-hexahydro-2H-pyrido[4,3-b][1,4]oxazin-4-yl]pyridazin-3-yl]-3,5-dimethyl-phenol], the IC50 is 0.002 µM at NLRP3 inflammasome and over 10 µM in test [1].
On the same counts, the results for `NC[C@@H]1CCCN(c2ccc(-c3c(O)cc(Cl)cc3Cl)nn2)C1` [Example 18, 2-[6-[(3S)-3-(aminomethyl)-1-piperidyl]pyridazin-3-yl]-3,5-dichloro-phenol] are 0.173 µM and over 10 µM.
The corresponding values for `Cc1cc(C(F)(F)F)cc(O)c1-c1ccc(N2CCN(C)CC2)nn1` [Example 29, 3-methyl-2-[6-(4-methylpiperazin-1-yl)pyridazin-3-yl]-5-(trifluoromethyl)phenol] are 0.332 µM and over 10 µM.
As for `CCc1cc(N2CCO[C@H](CO)C2)nnc1-c1ccc(Cl)cc1O` [Example 73, 5-chloro-2-[4-ethyl-6-[(2S)-2-(hydroxymethyl)morpholin-4-yl]pyridazin-3-yl]phenol], the IC50 on NLRP3 inflammasome was 0.056 µM; in test [1], over 10 µM.
On the same counts, the results for `Cc1ccc(-c2nnc(N3CCO[C@@H]4CCN(C)C[C@@H]43)cc2C(F)F)c(O)c1` [Example 295, 2-[6-[(4aS,8aR)-6-methyl-3,4a,5,7,8,8a-hexahydro-2H-pyrido[4,3-b][1,4]oxazin-4-yl]-4-(difluoromethyl)pyridazin-3-yl]-5-methyl-phenol] are 0.002 µM and over 10 µM.
The corresponding values for `Cc1cc(C)c(-c2ccc(N3CCO[C@H](CO)C3)nn2)c(O)c1` [Example 8, 2-[6-[(2S)-2-(hydroxymethyl)morpholin-4-yl]pyridazin-3-yl]-3,5-dimethyl-phenol] are 0.02 µM and over 10 µM.
The corresponding values for `Cc1cc(C)c(-c2ccc(N3C[C@@H]4COC[C@H]4C3)nn2)c(O)c1` (stereo in doubt) [Example 207, 2-[6-[(3aR,6aR)-1,3,3a,4,6,6a-hexahydrofuro[3,4-c]pyrrol-5-yl]pyridazin-3-yl]-3,5-dimethyl-phenol] are 0.174 µM and 3.01 µM.
As for `Cc1cc(C)c(-c2ccc(N3CCOc4ccc(O)cc43)nn2)c(O)c1` [Example 162, 4-[6-(2-hydroxy-4,6-dimethyl-phenyl)pyridazin-3-yl]-2,3-dihydro-1,4-benzoxazin-6-ol], the IC50 at NLRP3 inflammasome is 0.01 µM; in test [1], over 10 µM.
The corresponding values for `Cc1cc(Cl)cc(O)c1-c1ccc(N2CCO[C@@H](CNC(=O)C(C)C)C2)nn1` [Example 285, N-[[(2S)-4-[6-(4-chloro-2-hydroxy-6-methylphenyl)pyridazin-3-yl]morpholin-2-yl]methyl]-2-methylpropanamide] are 0.065 µM and over 10 µM.
Turning to `COc1ccc(-c2nnc(N3CCO[C@H](CO)C3)cc2C)c(O)c1` [Example 116, 2-[6-[(2S)-2-(hydroxymethyl)morpholin-4-yl]-4-methyl-pyridazin-3-yl]-5-methoxy-phenol], the IC50 was 0.454 µM at NLRP3 inflammasome and over 10 µM in test [1].
On the same counts, the results for `Oc1cc(Cl)cc(Cl)c1-c1ccc(N2CCOCC2)nn1` [Example 38, 3,5-dichloro-2-(6-morpholinopyridazin-3-yl)phenol] are 0.09 µM and over 10 µM.
The corresponding values for `Cc1cc(C(F)(F)F)cc(O)c1-c1ccc(N2C[C@@H](N)CC2=O)nn1` [Example 250, (4S)-4-amino-1-[6-[2-hydroxy-6-methyl-4-(trifluoromethyl)phenyl]pyridazin-3-yl]pyrrolidin-2-one] are 0.249 µM and over 10 µM.
On the same counts, the results for `CC(=O)N1CC[C@H]2OCCN(c3cc(C)c(-c4ccc(C(F)(F)F)cc4O)nn3)[C@H]2C1` [Example 363, 1-[(4aS,8aR)-4-[6-[2-hydroxy-4-(trifluoromethyl)phenyl]-5-methyl-pyridazin-3-yl]-3,4a,5,7,8,8a-hexahydro-2H-pyrido[4,3-b][1,4]oxazin-6-yl]ethanone] are 0.016 µM and over 10 µM.
As to `CCC(=O)C1CN(c2ccc(-c3c(C)cc(C)cc3O)nn2)CCO1` (single isomer, unassigned) [Example 157], the IC50 at NLRP3 inflammasome was 0.314 µM; in test [1], over 10 µM.
On the same counts, the results for `CN(C)C[C@H]1CN(c2ccc(-c3c(O)cc(Cl)cc3Cl)nn2)CCO1` [Example 39, 3,5-dichloro-2-[6-[(2S)-2-[(dimethylamino)methyl]morpholin-4-yl]pyridazin-3-yl]phenol] are 0.238 µM and over 10 µM.
The corresponding values for `Cc1cc(C(F)(F)F)cc(O)c1-c1ccc(N2CCO[C@H]3CCN(C4CCC4)C[C@H]32)nn1` (single isomer, unassigned) [Example 12] are 0.171 µM and over 10 µM.
Consider `Cc1cc(C)c(-c2ccc(N3CC[C@H](CO)C3=O)nn2)c(O)c1` (single isomer, unassigned) [Example 139], for which the half-maximal inhibitory concentration (IC50) on NLRP3 inflammasome is 0.235 µM; in test [1] it was over 10 µM.
The corresponding values for `OC[C@@H]1CN(c2ccc(-c3c(O)cccc3C(F)(F)F)nn2)CCO1` [Example 54, 2-[6-[(2S)-2-(hydroxymethyl)morpholin-4-yl]pyridazin-3-yl]-3-(trifluoromethyl) phenol] are 0.132 µM and over 10 µM.
On the same counts, the results for `Cc1cc(C(F)(F)F)cc(O)c1-c1ccc(N2C[C@@H](CO)O[C@H](C)C2)nn1` [Example 296, 2-[6-[(2S,6R)-2-(hydroxymethyl)-6-methyl-morpholin-4-yl]pyridazin-3-yl]-3-methyl-5-(trifluoromethyl)phenol] are 0.028 µM and over 10 µM.
On the same counts, the results for `[2H]C([2H])(O)[C@@H]1CN(c2ccc(-c3c(C)cc(C(F)(F)F)cc3O)nn2)CCO1` [Example 192, 2-[6-[(2S)-2-[dideuterio(hydroxy)methyl]morpholin-4-yl]pyridazin-3-yl]-3-methyl-5-(trifluoromethyl)phenol] are 0.011 µM and over 10 µM.
